One assay addresses T1, HDAC7 (Homo sapiens, UniProt Q8WUI4).
T1 sequence (Q8WUI4 1-952): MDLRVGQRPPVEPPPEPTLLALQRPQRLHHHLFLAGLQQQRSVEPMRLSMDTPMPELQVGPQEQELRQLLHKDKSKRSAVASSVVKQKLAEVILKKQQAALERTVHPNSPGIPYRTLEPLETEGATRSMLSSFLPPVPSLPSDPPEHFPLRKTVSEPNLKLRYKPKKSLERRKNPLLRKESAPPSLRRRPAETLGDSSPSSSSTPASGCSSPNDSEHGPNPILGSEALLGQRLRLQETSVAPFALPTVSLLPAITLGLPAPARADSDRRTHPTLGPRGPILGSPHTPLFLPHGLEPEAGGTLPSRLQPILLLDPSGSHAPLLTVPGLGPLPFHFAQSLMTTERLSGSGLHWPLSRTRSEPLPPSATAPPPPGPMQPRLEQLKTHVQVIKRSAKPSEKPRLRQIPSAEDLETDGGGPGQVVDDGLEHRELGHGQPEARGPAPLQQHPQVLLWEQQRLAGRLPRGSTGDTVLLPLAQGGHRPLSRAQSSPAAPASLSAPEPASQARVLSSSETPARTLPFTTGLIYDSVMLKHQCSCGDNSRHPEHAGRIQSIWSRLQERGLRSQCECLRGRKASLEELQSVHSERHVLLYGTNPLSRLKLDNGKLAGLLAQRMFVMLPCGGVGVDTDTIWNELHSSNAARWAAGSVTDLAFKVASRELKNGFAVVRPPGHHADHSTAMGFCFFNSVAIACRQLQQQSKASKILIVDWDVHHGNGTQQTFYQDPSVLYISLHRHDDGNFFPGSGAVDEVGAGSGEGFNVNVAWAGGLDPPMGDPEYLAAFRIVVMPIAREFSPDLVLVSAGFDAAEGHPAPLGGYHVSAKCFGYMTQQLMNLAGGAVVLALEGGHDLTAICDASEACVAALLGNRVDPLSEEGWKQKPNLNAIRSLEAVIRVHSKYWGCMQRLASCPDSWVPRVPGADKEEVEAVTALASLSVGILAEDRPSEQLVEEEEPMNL
Put plainly: HDAC biochemical activity measurement (fluorescent substrate deacetylation).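 Note: fluorogenic deacetylation assay using acetyl-lysine substrate at 20 µM, enzyme and compound incubated 30 min at 37 °C, then developer added, fluorescence read at 360/460 nm.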 The following applies: HDAC7; 37° C. 30 minutes.

Assay [1] concerns A549 (human lung cancer cells). The experiment in a line: MTT cancer cell growth inhibition. As to conditions: Homo sapiens, A549, 72 h, MTT, 72 hours incubation, read-out: GI50 A54. It is filed as cell-based. The source says: (§1) MTT assay principle is yellow MTT can penetrate membrane into the cell, succinic dehydrogenase of the mitochondria in living cells can make exogenous MTT reduction of insoluble in water of blue-violet acicular formazan for crystallization and deposition in the cell, crystallization can be dissolved dimethyl sulfoxide (DMSO) solution, detected its absorbance at 490 nm/570 nm wavelength by enzyme-linked immunosorbent assay, which can reflect the number of cells.
(§2) Using DMEM+10% FBS culture medium or using 1640+10% FBS culture, respectively.
(§3) a) Cells were seeded in 96-well plates with the inoculation of 1500/well, 190 μl/hole, 37° C., 5% of CO2 incubator overnight;
(§4) b) The next day each well was added 10 μl of different drugs. The final concentration of drug was 10^−5˜10^−10M, three parallel holes; 37° C., 5% CO2 culture incubator for 72 hours incubation;
(§5) c) Per well was added 20 μl 5 mg/ml of MTT, 37° C., 5% CO2 culture incubator for 4 hours incubation;
(§6) d) The supernatant was discarded. Each well was added 100 μl of DMSO and oscillation;
(§7) e) 570 nm readings. Calculate cell viability. GI50 calculation based on the results.

For assay [2], the system named is BGC-823 (human gastric cancer cells). Put plainly: MTT cancer cell growth inhibition. Format: cell-based. The following applies: Homo sapiens, BGC-823, 72 h, MTT, 72 hours incubation, read-out: GI50 BG.
Excerpt: as §1, §2, §3, §4, §5, §6, §7

The test system of assay [3] is Bel-7402 (human hepatoma cells). The experiment in a line: MTT cancer cell growth inhibition. It is filed as cell-based. As to conditions: Homo sapiens, Bel-7402, 72 h, MTT, 72 hours incubation, Bel-7402 cells; read-out: GI50 Bel-7402.
Excerpt: as §1, §2, §3, §4, §5, §6, §7

Assay [4] relates to DU145 (human prostate cancer cells). Put plainly: MTT cancer cell growth inhibition. As to conditions: Homo sapiens, DU-145, 72 h, MTT, 72 hours incubation, read-out: GI50 Du1. Format: cell-based.
Excerpt: as §1, §2, §3, §4, §5, §6, §7

In assay [5] the test system is H1975 (non-small cell lung adenocarcinoma). Put plainly: MTT cancer cell growth inhibition. It is filed as cell-based. As to conditions: Homo sapiens, NCI-H1975, 72 h, MTT, 72 hours incubation, H1975 cells; read-out: GI50 H1975.
Excerpt: as §1, §2, §3, §4, §5, §6, §7

Assay [6] concerns HCC827 (human non-small cell lung cancer cells). The experiment in a line: MTT cancer cell growth inhibition. As to conditions: Homo sapiens, HCC827, 72 h, MTT, 72 hours incubation, HCC827 cells; read-out: GI50 HCC827. It is filed as cell-based.
Excerpt: as §1, §2, §3, §4, §5, §6, §7

Assay [7] has as its system HT1080 (human fibrosarcoma cells). Put plainly: MTT cancer cell growth inhibition. Format: cell-based. The following applies: Homo sapiens, HT-1080, 72 h, MTT, 72 hours incubation, read-out: GI50 HT1.
Excerpt: as §1, §2, §3, §4, §5, §6, §7

Assay [8] concerns Hela (human cervical cancer cells). Put plainly: MTT cancer cell growth inhibition. It is filed as cell-based. The following applies: Homo sapiens, HeLa, 72 h, MTT, 72 hours incubation, read-out: GI50 Hela.
Excerpt: as §1, §2, §3, §4, §5, §6, §7

The subject of assay [9] is Huh-7 (human hepatoma cells). Put plainly: MTT cancer cell growth inhibition. Format: cell-based. As to conditions: Homo sapiens, Huh-7, 72 h, MTT, 72 hours incubation, Huh-7 cells; read-out: GI50 Huh-7.
Excerpt: as §1, §2, §3, §4, §5, §6, §7

The subject of assay [10] is K562 (human leukemia cells). The experiment in a line: MTT cancer cell growth inhibition. As to conditions: Homo sapiens, K562, 72 h, MTT, 72 hours incubation, K562 cells; read-out: GI50 K562. Format: cell-based.
Excerpt: as §1, §2, §3, §4, §5, §6, §7

In assay [11] the test system is KBM-5 (human chronic myelogenous leukemia). The experiment in a line: MTT cancer cell growth inhibition. Format: cell-based. As to conditions: Homo sapiens, KBM5, 72 h, MTT, 72 hours incubation, KBM-5 cells; read-out: GI50 KBM-5.
Excerpt: as §1, §2, §3, §4, §5, §6, §7

For assay [12], the system named is KBM5-T315I (human chronic myelogenous leukemia). The experiment in a line: MTT cancer cell growth inhibition. As to conditions: Homo sapiens, 72 h, MTT, 72 hours incubation, KBM5-T315I cells; read-out: GI50 KBM5-T315I. Format: cell-based.
Excerpt: as §1, §2, §3, §4, §5, §6, §7

The test system of assay [13] is MCF-7 (human breast cancer cells). Put plainly: MTT cancer cell growth inhibition. Format: cell-based. The following applies: Homo sapiens, MCF7, 72 h, 72 hours incubation, read-out: GI50 MCF.
Excerpt: as §1, §2, §3, §4, §5, §6, §7

In assay [14] the test system is MDA-MB-231 (breast cancer cells). Put plainly: MTT cancer cell growth inhibition. The following applies: Homo sapiens, MDA-MB-231, 72 h, read-out: GI50 MDA-MB-231, MTT, 72 hours incubation, MDA-MB-231 cells. It is filed as cell-based.
Excerpt: as §1, §2, §3, §4, §5, §6, §7

Assay [15] deals with MOLT-4 (human acute lymphoblastic leukemia cells). The experiment in a line: MTT cancer cell growth inhibition. Format: cell-based. As to conditions: Homo sapiens, MOLT-4, 72 h, MTT, 72 hours incubation, read-out: GI50 Mol.
Excerpt: as §1, §2, §3, §4, §5, §6, §7

In assay [16] the test system is N-87 (human gastric cancer cells). The experiment in a line: MTT cancer cell growth inhibition. Format: cell-based. As to conditions: Homo sapiens, 72 h, MTT, 72 hours incubation, N-87 cells; read-out: GI50 N-87.
Excerpt: as §1, §2, §3, §4, §5, §6, §7

The test system of assay [17] is PANC-1 (Pac-1, human pancreatic cancer cells). Put plainly: MTT cancer cell growth inhibition. As to conditions: Homo sapiens, PANC-1, 72 h, MTT, 72 hours incubation, read-out: GI50 PAN. It is filed as cell-based.
Excerpt: as §1, §2, §3, §4, §5, §6, §7

Assay [18] concerns SGC-7901 (human gastric cancer cells). Put plainly: MTT cancer cell growth inhibition. It is filed as cell-based. The following applies: Homo sapiens, SGC-7901, 72 h, MTT, 72 hours incubation, SGC-7901 cells; read-out: GI50 SGC-7901.
Excerpt: as §1, §2, §3, §4, §5, §6, §7

Assay [19] relates to U937 (human leukemia cells). Put plainly: MTT cancer cell growth inhibition. Format: cell-based. As to conditions: Homo sapiens, U-937, 72 h, MTT, 72 hours incubation, read-out: GI50 U93.
Excerpt: as §1, §2, §3, §4, §5, §6, §7

The subject of assay [20] is lncap (prostate cancer cells). The experiment in a line: MTT cancer cell growth inhibition. Format: cell-based. As to conditions: Homo sapiens, LNCaP, 72 h, MTT, 72 hours incubation, read-out: GI50 lnca.
Excerpt: as §1, §2, §3, §4, §5, §6, §7

Where two headings read alike, the source gives them in different places.

Experimental for HDAC7: The chemical activity of the compound is determined according to the degree of deacetylation inhibition of the HDAC enzyme. This experiment measured the degree of deacetylation related to tumor proliferation and metastasis of HDAC1, HDAC2, HDAC3, HDAC8, HDAC11 five subtypes HDAC enzymes. After the substrate containing an acetylated lysine side chain and HDAC enzyme are labeled with a fluorescent label, the fluorescent substrate is de acetyl. The fluorescent labeled substrate is cleaved by the enzyme, and the fluorescent substance is released, which generates 460 nm emission light under the excitation of 360 nm light.
HDAC substrate was diluted with reaction buffer to 200M (reaction concentration of 20M), the HDAC enzyme was diluted to the appropriate concentration, then added different concentrations of the test compounds and acted at 37° C. 30 minutes, and then added the same volume of 2-times concentration substrate developing solution (developer), incubated at room temperature for 15 minutes. Finally, the last reading measured with a microplate plate reader, excitation light was 360 nm, the emitted light was 460 nm, data processing software was Prime 4, and the results are shown in Table 1.

As usually defined, the GI50 is the concentration at which growth is held to half of that of the control. With `C/C=C1\NC(=O)c2cccc(n2)CNC(=O)C[C@@H](/C=C/CCS)OC(=O)[C@H](CCCCNC(=O)OCC2c3ccccc3-c3ccccc32)NC1=O` [Compound 119], the “IC50 HDAC7” value against HDAC7 is listed as “no activity”. Besides, the GI50 in assay [1] came out at 60 nM; in [2], 40 nM; in assay [3], 37 nM; in [4] it was 50 nM; in [5], 38 nM; in [6] it was 37 nM. The GI50 came out at 90 nM in assay [7]; 90 nM in [8]; 26 nM in [9]; 36 nM in [10]; 62 nM in assay [11]; 28 nM in assay [12]. The 50% growth inhibitory concentration (GI50) was 50 nM in [13]; 27 nM in [14]; 90 nM in assay [15]; 38 nM in assay [16]; 40 nM in [17]; 34 nM in assay [18]. The values for the GI50 in [19] and in [20] were 60 nM and 90 nM, respectively.
Consider `C/C=C1\NC(=O)c2ccc(F)c(n2)CNC(=O)C[C@@H](/C=C/CCSC(C)=O)OC(=O)[C@H](C)NC1=O` [Example 65], for which, at HDAC7, the “IC50 HDAC7” value was “no activity”. In addition, the GI50 in assay [1] is 70 nM; in assay [2], 50 nM; in assay [3], 62 nM; in [4] it was 20 nM; in [5], 29 nM; in assay [6], 62 nM. For the same molecule, the GI50 in assay [7] was 60 nM; in assay [8] it was 90 nM; in [9], 43 nM; in assay [10], 29 nM; in assay [11] it was 92 nM; in assay [12], 63 nM. The GI50 in assay [13] worked out at 60 nM; in assay [14], 43 nM; in assay [15] it was 40 nM; in assay [16] it was 52 nM; in assay [17] it was 60 nM; in assay [18] it was 77 nM. Also, the GI50 came to 20 nM in assay [19] and 40 nM in [20].
As for `C/C=C1\NC(=O)c2nc(ccc2SC)CNC(=O)C[C@@H](/C=C/CCSC(C)=O)OC(=O)[C@H](CC)NC1=O` [Compound 177], the “IC50 HDAC7” value at HDAC7 is on record as “no activity”. Further, the GI50 in [1] (A549 cells) was found to be 20 nM; in [2] (BGC-823 cells) it was 40 nM; in [3], 84 nM; in assay [4] (DU145 cells), 60 nM; in [5] it was 83 nM; in [6] it was 33 nM. The GI50 in assay [7] (HT1080 cells) is 30 nM; in [8] (Hela cells), 100 nM; in assay [9], 35 nM; in assay [10], 29 nM; in assay [11] it was 80 nM; in assay [12], 13 nM. Besides, the GI50 was found to be 50 nM in assay [13] (MCF-7 cells); 49 nM in [14]; 60 nM in assay [15] (MOLT-4 cells); 37 nM in assay [16]; 20 nM in assay [17] (PANC-1 cells); 39 nM in assay [18]. The GI50 is 60 nM in [19] (U937 cells) and 10 nM in assay [20] (lncap cells).
For `C/C=C1\NC(=O)c2ccc(SC)c(n2)CNC(=O)C[C@@H](/C=C/CCS)OC(=O)[C@H](C)NC1=O` [Compound 234], at HDAC7, the “IC50 HDAC7” value was “no activity”. For the same molecule, the GI50 was found to be 20 nM in [1] (A549 cells); 80 nM in [2] (BGC-823 cells); 82 nM in assay [3]; 50 nM in [4] (DU145 cells); 52 nM in assay [5]; 16 nM in [6]. The GI50 in assay [7] (HT1080 cells) amounted to 10 nM; in assay [8] (Hela cells), 60 nM; in assay [9], 42 nM; in assay [10] it was 38 nM; in assay [11], 12 nM; in assay [12], 32 nM. Also, the GI50 in assay [13] (MCF-7 cells) was determined as 30 nM; in assay [14] it was 39 nM; in assay [15] (MOLT-4 cells), 30 nM; in assay [16], 23 nM; in assay [17] (PANC-1 cells), 30 nM; in assay [18], 39 nM. Further, the GI50 in [19] (U937 cells) and in [20] (lncap cells) was 20 nM each time.
